Laboratory results as given in patent US20060039867A1, “Method for treating sleep-related breathing disorders with setiptiline” (Cypress Bioscience, Inc., priority 2004, published 2006).
Where two headings read alike, the source gives them in different places.

Legend:
Muscarinic M1 = molecular target: T1, Muscarinic M1 (Homo sapiens, UniProt P11229); experiment: Receptor binding, Muscarinic M1; conditions: read-out: Setiptiline (Ki)
T1 sequence (P11229 1-460): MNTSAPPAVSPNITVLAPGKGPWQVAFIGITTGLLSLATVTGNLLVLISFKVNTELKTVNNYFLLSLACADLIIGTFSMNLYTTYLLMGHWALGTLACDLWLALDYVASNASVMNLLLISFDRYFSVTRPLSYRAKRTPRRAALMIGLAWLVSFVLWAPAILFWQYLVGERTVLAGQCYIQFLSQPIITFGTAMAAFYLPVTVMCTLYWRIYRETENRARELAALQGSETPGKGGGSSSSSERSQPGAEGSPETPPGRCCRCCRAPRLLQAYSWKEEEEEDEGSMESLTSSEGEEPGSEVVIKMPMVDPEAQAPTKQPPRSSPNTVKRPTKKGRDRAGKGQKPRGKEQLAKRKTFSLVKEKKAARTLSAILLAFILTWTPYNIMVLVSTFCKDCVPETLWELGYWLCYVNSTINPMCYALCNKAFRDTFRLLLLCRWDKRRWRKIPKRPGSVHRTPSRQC
Text: (§1) 5HT3 antagonists are used to treat various maladies of the gastrointestinal tract, such as irritable bowel syndrome-diarrhea predominant and nausea and vomiting associated with chemotherapy. One potentially serious side effect of strong 5HT3 antagonists is constipation, which in some cases may be so severe as to lead to ischemic colitis.

NET = NET (Homo sapiens, UniProt P23975); experiment: Receptor binding, NET; conditions: read-out: Setiptiline (Ki)
Text: as §1

5HT2C [1] = molecular target: T2, 5HT2C (Homo sapiens, UniProt P28335); experiment: Receptor binding, 5HT2C; conditions: 5HT2C receptor; read-out: Setiptiline (Ki)
Text: as §1

α1, non-selective [2] = experiment: Receptor binding, α1 non-selective; conditions: read-out: Setiptiline (Ki)
Text: as §1

α2, non-selective [3] = experiment: Receptor binding, α2 non-selective; conditions: read-out: Setiptiline (Ki)
Text: as §1

5HT2, non-selective [4] = experiment: Receptor binding, 5HT2 non-selective; conditions: 5HT2, non-selective receptor; read-out: Setiptiline (Ki)
Text: as §1

SERT = SERT (Homo sapiens, UniProt P31645); experiment: Receptor binding, SERT; conditions: read-out: Setiptiline (Ki)
Text: as §1

5HT3 [5] = molecular target: T3, 5HT3 (Homo sapiens, UniProt P46098); experiment: Receptor binding, 5HT3; conditions: 5HT3 receptor; read-out: Setiptiline (Ki)
T3 sequence (P46098 24-478): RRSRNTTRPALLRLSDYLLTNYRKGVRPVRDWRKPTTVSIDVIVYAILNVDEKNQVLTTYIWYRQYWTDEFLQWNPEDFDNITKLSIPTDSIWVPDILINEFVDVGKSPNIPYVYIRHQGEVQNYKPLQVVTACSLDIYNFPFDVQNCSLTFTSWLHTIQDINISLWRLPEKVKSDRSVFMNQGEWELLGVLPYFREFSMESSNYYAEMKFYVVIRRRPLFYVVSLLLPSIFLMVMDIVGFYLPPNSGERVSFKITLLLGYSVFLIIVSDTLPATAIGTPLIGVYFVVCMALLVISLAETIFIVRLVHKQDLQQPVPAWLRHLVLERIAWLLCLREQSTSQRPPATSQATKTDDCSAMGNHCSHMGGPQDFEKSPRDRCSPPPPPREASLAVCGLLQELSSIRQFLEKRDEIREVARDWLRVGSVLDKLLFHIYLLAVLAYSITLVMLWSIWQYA
Text: as §1

5HT2C [6] = molecular target: T2, 5HT2C; conditions: read-out: Mirtazapine (Ki); 5HT2C receptor; from de Boer et al., 1996; cited from earlier work
5HT2, non-selective [7] = conditions: read-out: Mirtazapine (Ki); 5HT2, non-selective receptor; from de Boer et al., 1996; cited from earlier work
5HT3 [8] = molecular target: T3, 5HT3; conditions: read-out: Mirtazapine (Ki); 5HT3 receptor; from de Boer et al., 1996; cited from earlier work
α1, non-selective [9] = conditions: read-out: Mirtazapine (Ki); α1, non-selective receptor; from de Boer et al., 1996; cited from earlier work
α2, non-selective [10] = conditions: read-out: Mirtazapine (Ki); α2, non-selective receptor; from de Boer et al., 1996; cited from earlier work
[11] = molecular target: T4, 5HT1A sertotonin receptor (Homo sapiens, UniProt P08908); experiment: Affinity for the 5HT1A serotonin receptor; format: binding; conditions: read-out: affinity for the 5HT1A sertotonin receptor (pKi) (converted)
T4 sequence (P08908 1-422): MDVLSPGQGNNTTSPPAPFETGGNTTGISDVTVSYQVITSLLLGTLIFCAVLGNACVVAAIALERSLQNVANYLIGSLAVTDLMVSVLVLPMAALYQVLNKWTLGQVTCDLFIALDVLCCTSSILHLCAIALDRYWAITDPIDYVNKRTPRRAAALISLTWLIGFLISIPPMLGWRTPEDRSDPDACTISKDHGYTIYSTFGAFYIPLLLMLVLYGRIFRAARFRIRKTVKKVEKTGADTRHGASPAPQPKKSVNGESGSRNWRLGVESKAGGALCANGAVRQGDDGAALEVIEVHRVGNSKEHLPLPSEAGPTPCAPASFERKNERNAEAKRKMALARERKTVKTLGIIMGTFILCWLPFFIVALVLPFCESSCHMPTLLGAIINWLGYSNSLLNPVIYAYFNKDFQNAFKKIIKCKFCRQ

T2 sequence (P28335 33-458, species assumed): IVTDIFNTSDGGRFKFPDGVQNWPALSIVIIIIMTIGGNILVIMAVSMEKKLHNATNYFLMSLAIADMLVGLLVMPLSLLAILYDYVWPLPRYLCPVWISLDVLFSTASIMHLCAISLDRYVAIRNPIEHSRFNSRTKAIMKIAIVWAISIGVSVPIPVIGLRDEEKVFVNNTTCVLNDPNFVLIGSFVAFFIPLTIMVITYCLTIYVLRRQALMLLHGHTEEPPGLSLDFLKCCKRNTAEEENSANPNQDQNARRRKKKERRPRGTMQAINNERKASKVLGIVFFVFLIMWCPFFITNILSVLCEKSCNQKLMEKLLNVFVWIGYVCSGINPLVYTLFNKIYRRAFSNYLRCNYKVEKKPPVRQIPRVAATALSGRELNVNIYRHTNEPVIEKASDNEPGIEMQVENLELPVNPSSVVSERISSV
SERT, sequence (P31645 whole entry, species assumed): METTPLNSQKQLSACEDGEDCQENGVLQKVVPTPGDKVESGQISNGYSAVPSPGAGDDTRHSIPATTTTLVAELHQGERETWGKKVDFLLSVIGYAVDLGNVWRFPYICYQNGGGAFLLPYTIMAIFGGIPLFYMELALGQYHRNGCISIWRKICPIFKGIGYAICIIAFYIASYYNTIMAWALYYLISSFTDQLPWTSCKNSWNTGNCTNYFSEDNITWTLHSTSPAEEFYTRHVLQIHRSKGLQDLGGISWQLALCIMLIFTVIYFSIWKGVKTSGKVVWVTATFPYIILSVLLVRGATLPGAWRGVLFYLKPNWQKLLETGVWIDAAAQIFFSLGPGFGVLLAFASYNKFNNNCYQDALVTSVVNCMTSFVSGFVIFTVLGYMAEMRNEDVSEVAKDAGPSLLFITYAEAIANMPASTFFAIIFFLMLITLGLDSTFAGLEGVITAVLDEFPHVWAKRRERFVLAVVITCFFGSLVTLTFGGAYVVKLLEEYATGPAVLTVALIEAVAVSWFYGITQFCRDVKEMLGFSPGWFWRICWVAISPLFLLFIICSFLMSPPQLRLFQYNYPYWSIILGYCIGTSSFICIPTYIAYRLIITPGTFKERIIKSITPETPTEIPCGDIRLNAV
NET, sequence (P23975 whole entry): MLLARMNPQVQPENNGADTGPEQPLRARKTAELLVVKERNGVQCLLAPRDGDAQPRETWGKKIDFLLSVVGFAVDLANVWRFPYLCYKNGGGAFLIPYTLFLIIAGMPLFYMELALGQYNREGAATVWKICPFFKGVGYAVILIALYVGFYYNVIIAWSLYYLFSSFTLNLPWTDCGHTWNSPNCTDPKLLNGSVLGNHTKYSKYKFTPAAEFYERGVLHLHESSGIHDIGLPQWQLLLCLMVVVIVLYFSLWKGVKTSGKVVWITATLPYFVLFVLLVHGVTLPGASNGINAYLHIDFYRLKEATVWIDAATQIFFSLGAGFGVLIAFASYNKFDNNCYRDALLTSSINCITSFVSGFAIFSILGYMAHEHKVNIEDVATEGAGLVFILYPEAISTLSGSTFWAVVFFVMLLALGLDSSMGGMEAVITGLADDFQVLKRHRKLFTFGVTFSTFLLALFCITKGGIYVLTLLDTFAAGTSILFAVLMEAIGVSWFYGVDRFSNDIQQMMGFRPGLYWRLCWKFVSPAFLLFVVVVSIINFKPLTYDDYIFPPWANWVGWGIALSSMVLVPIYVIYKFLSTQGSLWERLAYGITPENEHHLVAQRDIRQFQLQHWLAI

SMILES: CN1CCC2=C(C1)c1ccccc1Cc1ccccc12
- Ki (Muscarinic M1): 258 nM
- Ki (NET): 1960 nM
- Ki (5HT2C [1]): 0.47 nM
- Ki (α1, non-selective [2]): 144 nM
- Ki (α2, non-selective [3]): 93 nM
- Ki (5HT2, non-selective [4]): 0.71 nM
- Ki (SERT): > 10000 nM
- Ki (5HT3 [5]): 757 nM

SMILES: CN1CCN2c3ncccc3Cc3ccccc3C2C1 (centres unmarked) [Mirtazapine]
- Ki (5HT2C [6]): 13 nM
- Ki (5HT2, non-selective [7]): 6.3 nM
- Ki (5HT3 [8]): 79 nM
- Ki (α1, non-selective [9]): 501 nM
- Ki (α2, non-selective [10]): 50 nM

SMILES: CC1CN(c2cccc(Cl)c2)CCN1CCCn1nc2ccccn2c1=O (centres unmarked) [MER 810]
- Ki [11]: 85.1 nM
